In patent US7973218B2, “Methods and compositions for controlling weeds” (Pioneer Hi-Bred International, Inc., priority 2005, dated 2011):

How the values were obtained:
[1] = system: Wild Type soybeans (Jack); experiment: Postemergence herbicide test on soybeans, % visual injury; assay type: in vivo, soybean; settings: non-transgenic control soybeans; 35 g/ha
Procedure: (§1) Four replications were performed for each treatment.
(§2) When possible, containers were thinned to two uniform plants.

GAT-HRA soybeans = experiment: as above; assay type: in vivo, soybean; settings: 35 g/ha
Procedure: as §1, §2

lead GAT7 soybean events = experiment: Field efficacy experiment JHM5G030, visual rating 7 and 14 days after treatment; assay type: in vivo; settings: 7 DAS and 14 DAS; rimsulfuron 8.75 and 35.0 g/ha ai; Synchrony 35.03 and 140.11 g/ha ai; tribenuron 8.75 and 35.0 g/ha ai
Procedure: GAT round 7 (GAT7) transgenic events from construct PHP20163A were evaluated in 2004 for herbicide efficacy (JHM464TGATEFF) and yield potential (JHD4_GAT7 tests). […] 92M90 was selected as a STS variety to compare directly with the SAMS:ALS construct in the GAT7 events. Variety Jack was utilized as an untransformed negative control.
Selected lines were grown in experiment JHM5G030 in two replications of paired twelve foot rows, with eleven different treatments applied. Lines were blocked by event and treatment to provide side-by-side comparison of the eleven different spray treatments, with a 2 row border between each treatment to catch any spray drift. […] Lines were given a 100 (complete susceptibility, 100% damage) to 0 (complete tolerance, 0% damage) visual rating at 7 days after treatment and again at 14 days after treatment. Visual ratings were based upon overall degree of chlorosis, necrosis, and plant stunting (if evident) in the treated rows compared to the respective unsprayed control rows. Rating data at 7 and 14 days after spraying were subject to ANOVA and mean separation using SAS.

[2] = system: infected GS3 embryos with the GAT construct; experiment: Glyphosate selection of infected embryos; assay type: cell-based, maize; settings: 1.0 mM or 2.0 mM glyphosate in medium; about 40 days culture
Procedure: (§3) A glyphosate kill curve was established by testing non-transformed embryos response on media with different levels of glyphosate. GS3 embryos were isolated from an immature ear and placed onto media containing glyphosate at 0.0, 0.5, 1.0, and 2.0 mM. After about 40 days culture, the response of the embryos were observed and recorded. Similarly, infected GS3 embryos with the GAT construct were placed onto media containing glyphosate at 0.0, 0.5, 1.0, and 2.0 mM. After about 40 days culture, the response of the infected embryos were observed and recorded (FIG. 7).

[3] = system: Heterozygous GAT-HRA corn; experiment: Postemergence herbicide application to potted corn (fresh weight, visual injury); assay type: in vivo; settings: 3472 g ae/ha
[4] = system: Parent elite stiff stalk inbred corn; experiment: as above; assay type: in vivo; settings: 3472 g ae/ha
[5] = system: Untransformed Coker 312 cotton plants; experiment: Greenhouse over-the-top herbicide spray of cotton; assay type: in vivo, Gossypium hirsutum
From the text: (§4) Cotton (Gossypium hirsutum) Coker 312 was transformed with a GAT polynucleotide (gat 4621) together with an Hra polynucleotide (SEQ ID NO:86) both operably linked to strong, constitutive plant viral promoters. The promoter linked to gat4621 contains a duplicated portion of the Strawberry Vein Banding Virus transcript promoter (Wang et al. Virus Genes 20: 11-17, 2000; Genbank X97304). The Hra gene was driven by a duplicated portion of the Mirabilis Mosaic Caulimovirus full-length transcript promoter (U.S. Pat. No. 6,420,547; Dey and Maiti, Transgenics 3:61-70, 1999). The transformation procedure used Agrobacterium tumefaciens containing an expression cassette with the genes to be transferred and cotyledon explant derived callus with some capacity to undergo embryogenesis. The callus was exposed to Agrobacterium for 48-72 hours. The callus was then exposed to selection for transformed cells on 50-200 μg/l chlorosulfuron and/or 50-450 μM glyphosate in solid medium. Glyphosate can also be used in a concentration range of about 5 to about 450 μM. Selection was applied until somatic embryos formed, and selection was again applied at the embryo germination step, and optionally during rooting of plantlets. Over 450 GAT-HRA transformation events were produced using selection with both chlorsulfuron and glyphosate.
(§5) Transformed cotton plants were rooted and then transferred to soil for further growth. Plants were then subjected to herbicide spray treatments in a greenhouse. […] Untransformed Coker 312 control plants were dead 2 weeks after glyphosate application. […] Plants transformed with both GAT and HRA were further subjected to an “over the top” application of the sulfonylurea herbicide rimsulfuron at a rate of 16 g active ingredient/hectare. […] In further experiments 32 g ai/ha rimsulfuron were applied to the cotton.

[6] = system: GAT-HRA transgenic cotton plants; experiment: Greenhouse over-the-top herbicide spray of cotton; assay type: in vivo, Gossypium hirsutum; settings: glyphosate 1.5 lb acid equivalent per acre; 14 days after application
From the text: as §4, §5

[7] = system: non-transformed GS3 embryos; experiment: Glyphosate kill curve; assay type: cell-based, maize; settings: about 40 days culture
Procedure: as §3

[8] = system: Glyphosate, Paraquat, and ACCase-Inhibitor Resistant Ryegrass; experiment: Control of resistant ryegrass by glyphosate and representative SU's; assay type: in vivo; settings: glyphosate (SCAT) only or plus an SU
From the text: In this example, four different SU's were applied together with glyphosate (SCAT®) on the resistant ryegrass. The results as to the best SU partner for glyphosate were inconclusive, but the average benefit of applying an SU with glyphosate on herbicide resistant ryegrass was 39% (e.g., 34% control with glyphosate (SCAT®) only and 57-83% control with glyphosate (SCAT®) plus metsulfuron-methyl (BRUSH-OFF®), chlorsulfuron (GLEAN®), or triasulfuron (LOGRAN(®)).

[9] = system: non-glyphosate resistant ryegrass; experiment: Control of ryegrass by glyphosate, metsulfuron-methyl and two additives; assay type: in vivo; settings: 0.5 L ha-1 glyphosate (SCAT) alone
Procedure: The example was conducted on non-glyphosate resistant ryegrass. As provided in Table 23, all treatments that included glyphosate [180 g a.i. L ha^−1 (0.5 L glyphosate (SCAT®))] plus metsulfuron-methyl (BRUSH-OFFS®) (5 and 10 g ha^−1) gave 100% control of the ryegrass.

[10] = system: Hairy Fleabane (Conyza bonariensis), glyphosate sensitive biotype; experiment: Control of hairy fleabane by glyphosate, metsulfuron-methyl and two additives; assay type: in vivo; settings: glyphosate on its own
Procedure: This example included the same treatments as used in Example 11, except the treatments were carried out on a glyphosate sensitive biotype of Kleinskraalhans (Conyza bonariensis).

[11] = system: Soybeans comprising the lead GAT7 event and also having HRA; experiment: Greenhouse test confirming the field trial (Example 6B); assay type: in vivo, soybean; settings: GAT/HRA Soybeans
From the text: Example 6B provides greenhouse data that confirms the field trial data provided above in Example 6A. Soybeans comprising the lead GAT7 event and also having HRA were used in the studies.

Row | SMILES | damage [1] | damage (GAT-HRA soybeans) | spray damage of the 4 GAT events compared to Jack and STS (lead GAT7 soybean events) | resistant callus initiation [2] | Fresh Weight ([3]; weighed 2 weeks after treatment, untreated 98.8 g) [g] | Visual crop injury (%) at 3472 g/ha ([3]; Zea mays, post-emergence) [%] | Fresh Weight ([4]; weighed 2 weeks after treatment, untreated 76.4 g) [g] | % visual injury to corn at 3472 g/ha ([4]; Zea mays, post-emergence) [%] | state of plants after application ([5]; 1.5 lb acid equivalent per acre, 4-6 leaf stage, 2 weeks after application) | transgenic plants with no deleterious symptoms [6] | callus initiation ([7]; 0.5 mM glyphosate in medium) | callus growth ([7]; 1.0 and 2.0 mM glyphosate in medium) | control [8] [%] | plants that eventually died [9] | plants killed [10] | damage from the application ([5]; 16 g active ingredient/hectare, in the absence of glyphosate) | % Growth Reduction ([11]; Rimsulfuron 35 + Imazethapyr 0 g ai/ha, Treatment # 6) [%] | % Growth Reduction ([11]; Rimsulfuron 70 + Imazethapyr 0 g ai/ha, Treatment # 11) [%]
1 | COC(=O)c1ccccc1S(=O)(=O)NC(=O)N(C)c1nc(C)nc(OC)n1 [Tribenuron-methyl, methyl 2-[[[[N-(4-methoxy-6-methyl-1,3,5-triazin-2-yl)-N-methylamino]carbonyl]-amino]sulfonyl]benzoate] | killed | no significant damage | significantly less visual damage compared to STS and Jack |  |  |  |  |  |  |  |  |  |  |  |  |  |  | 
2 | O=C(O)CNCP(=O)(O)O [Glyphosate, N-phosphonomethylglycine] |  |  |  | some embryos initiated resistant callus | 97.4 | 10 | 1.0 | 100 | dead | approximately 50% | about half of the embryos | very little callus growth | 34 | 15 of the 16 plants (12%) | 1 out of 16 plants (12%) |  |  | 
3 | CCS(=O)(=O)c1cccnc1S(=O)(=O)NC(=O)Nc1nc(OC)cc(OC)n1 [Rimsulfuron, N-[[(4,6-dimethoxy-2-pyrimidinyl)amino]carbonyl]-3-(ethylsulfonyl)-2-pyridinesulfonamide] |  |  | significantly less spray damage compared to Jack and STS |  |  |  |  |  |  |  |  |  |  |  |  | severe damage | 67 | 73
